From PubChem BioAssay AID1918998 (Molecular Pharmacology Branch, DTP, NCI, 2023)
pIC50: −log10 of the molar value. Where “and” joins values, the source holds several entries; their conditions need not be identical. Equal values may be shown once.

Tested on: 521955-158-R2-J5-PDC complex spheroid growth
Test: Anticancer human tumor 521955-158-R2-J5-PDC patient-derived pancreatic carcinoma cell line growth inhibition [AhR]
Conditions: for viability, T/C: stronger effect = lower value
Method in brief: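 Agents were dosed in half-log steps down from roughly clinical Cmax, or from 10 microM where Cmax was unknown, alone and with AhR antagonists. Read-out: percent test/control growth of tumor spheroids containing HUVEC and MSC stromal cells.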

[1] = curve of first compound, second compound 0.1 µM
[2] = curve of first compound, second compound 0.316 µM
[3] = curve of first compound, second compound 1 µM
[4] = curve of first compound, second compound 3.16 µM
[5] = curve of first compound, second compound 10 µM
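Wherever viability, T/C is given: spheroids mix tumor cells with HUVEC endothelium and human MSC stroma; luminescence taken as viability surrogate after a week of drug exposure.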

## Cn1ncnc1C1c2n[nH]c(=O)c3cc(F)cc(c23)NC1c1ccc(F)cc1 (configuration not stated) + Cc1cncc(-c2nc(NCCc3c[nH]c4ccccc34)c3ncn(C(C)C)c3n2)c1
[1]
  pIC50: < 7.00
[2]
  pIC50: < 7.00
[3]
  pIC50: < 7.00
[4]
  pIC50: < 7.00
[5]
  pIC50: < 7.00
Second compound 0.1 µM, first compound 0.000316 µM
  viability, T/C: 114%
Second compound 0.1 µM, first compound 0.001 µM
  viability, T/C: 106%
Second compound 0.1 µM, first compound 0.00316 µM
  viability, T/C: 94.6%
Second compound 0.1 µM, first compound 0.01 µM
  viability, T/C: 109%
Second compound 0.1 µM, first compound 0.0316 µM
  viability, T/C: 93%
Second compound 0.1 µM, first compound 0.1 µM
  viability, T/C: 83%
Second compound 0.316 µM, first compound 0.000316 µM
  viability, T/C: 105%
Second compound 0.316 µM, first compound 0.001 µM
  viability, T/C: 121%
Second compound 0.316 µM, first compound 0.00316 µM
  viability, T/C: 93.3%
Second compound 0.316 µM, first compound 0.01 µM
  viability, T/C: 110%
Second compound 0.316 µM, first compound 0.0316 µM
  viability, T/C: 87.6%
Second compound 0.316 µM, first compound 0.1 µM
  viability, T/C: 101%
Second compound 1 µM, first compound 0.000316 µM
  viability, T/C: 122%
Second compound 1 µM, first compound 0.001 µM
  viability, T/C: 117%
Second compound 1 µM, first compound 0.00316 µM
  viability, T/C: 116%
Second compound 1 µM, first compound 0.01 µM
  viability, T/C: 127%
Second compound 1 µM, first compound 0.0316 µM
  viability, T/C: 116%
Second compound 1 µM, first compound 0.1 µM
  viability, T/C: 99.5%
Second compound 3.16 µM, first compound 0.000316 µM
  viability, T/C: 114%
Second compound 3.16 µM, first compound 0.001 µM
  viability, T/C: 142%
Second compound 3.16 µM, first compound 0.00316 µM
  viability, T/C: 115%
Second compound 3.16 µM, first compound 0.01 µM
  viability, T/C: 119%
Second compound 3.16 µM, first compound 0.0316 µM
  viability, T/C: 122%
Second compound 3.16 µM, first compound 0.1 µM
  viability, T/C: 107%
Second compound 10 µM, first compound 0.000316 µM
  viability, T/C: 134%
Second compound 10 µM, first compound 0.001 µM
  viability, T/C: 143%
Second compound 10 µM, first compound 0.00316 µM
  viability, T/C: 106%
Second compound 10 µM, first compound 0.01 µM
  viability, T/C: 105%
Second compound 10 µM, first compound 0.0316 µM
  viability, T/C: 111%
Second compound 10 µM, first compound 0.1 µM
  viability, T/C: 104%

## O=C(C=Cc1cccc(S(=O)(=O)Nc2ccccc2)c1)NO
Compound 0.0316 µM
  viability, T/C: 97.4% and 85.1% and 115%
Compound 0.1 µM
  viability, T/C: 95.1% and 99.1% and 103%
Compound 0.316 µM
  viability, T/C: 94.2% and 96.2% and 102%
Compound 1 µM
  viability, T/C: 88.4% and 104% and 69.3%
Compound 3.16 µM
  viability, T/C: 59.1% and 79.9% and 54.3%
Compound 10 µM
  viability, T/C: 40.5% and 52.5% and 24.2%
Curve of compound
  pIC50: 5.26 and < 5.00 and 5.48

## CCc1c2c(nc3ccc(O)cc13)-c1cc3c(c(=O)n1C2)COC(=O)[C@]3(O)CC + CC(CO)NC(=O)c1cc(-c2ccc(Cl)cc2)nn(-c2cnn(C)c2)c1=O
[1]
  pIC50: 8.65
[2]
  pIC50: > 9.02
[3]
  pIC50: 8.92
[4]
  pIC50: > 9.02
[5]
  pIC50: > 9.02
Second compound 0.1 µM, first compound 0.000949 µM
  viability, T/C: 57.4%
Second compound 0.1 µM, first compound 0.003 µM
  viability, T/C: 47.5%
Second compound 0.1 µM, first compound 0.00949 µM
  viability, T/C: 15.7%
Second compound 0.1 µM, first compound 0.03 µM
  viability, T/C: 9.8%
Second compound 0.1 µM, first compound 0.0949 µM
  viability, T/C: 8.28%
Second compound 0.1 µM, first compound 0.3 µM
  viability, T/C: 5.09%
Second compound 0.316 µM, first compound 0.000949 µM
  viability, T/C: 49.1%
Second compound 0.316 µM, first compound 0.003 µM
  viability, T/C: 36.5%
Second compound 0.316 µM, first compound 0.00949 µM
  viability, T/C: 13.5%
Second compound 0.316 µM, first compound 0.03 µM
  viability, T/C: 9.73%
Second compound 0.316 µM, first compound 0.0949 µM
  viability, T/C: 8.11%
Second compound 0.316 µM, first compound 0.3 µM
  viability, T/C: 5.79%
Second compound 1 µM, first compound 0.000949 µM
  viability, T/C: 55.3%
Second compound 1 µM, first compound 0.003 µM
  viability, T/C: 30%
Second compound 1 µM, first compound 0.00949 µM
  viability, T/C: 16.4%
Second compound 1 µM, first compound 0.03 µM
  viability, T/C: 7.85%
Second compound 1 µM, first compound 0.0949 µM
  viability, T/C: 9.01%
Second compound 1 µM, first compound 0.3 µM
  viability, T/C: 4.72%
Second compound 3.16 µM, first compound 0.000949 µM
  viability, T/C: 35.5%
Second compound 3.16 µM, first compound 0.003 µM
  viability, T/C: 29.3%
Second compound 3.16 µM, first compound 0.00949 µM
  viability, T/C: 16.7%
Second compound 3.16 µM, first compound 0.03 µM
  viability, T/C: 12.7%
Second compound 3.16 µM, first compound 0.0949 µM
  viability, T/C: 9.72%
Second compound 3.16 µM, first compound 0.3 µM
  viability, T/C: 9.82%
Second compound 10 µM, first compound 0.000949 µM
  viability, T/C: 27.3%
Second compound 10 µM, first compound 0.003 µM
  viability, T/C: 23.6%
Second compound 10 µM, first compound 0.00949 µM
  viability, T/C: 14.9%
Second compound 10 µM, first compound 0.03 µM
  viability, T/C: 8.31%
Second compound 10 µM, first compound 0.0949 µM
  viability, T/C: 7.42%
Second compound 10 µM, first compound 0.3 µM
  viability, T/C: 6.21%
